Measurements: US20240009174A1, “METHODS FOR DISRUPTING MITOCHONDRIAL UNFOLDED PROTEIN RESPONSE” (Health Research, Inc., priority 2020, published 2024)

Experiments:
[1] = tested on: LNCaP and PC-3 cells; test: DEVDase (caspase) activity in cell lysates; format: cell-based; settings: 24 and 48 hours
Description: FIG. 6. Pharmacological inhibition of HSP60-ClpP interaction induces UPR^mt and PCa cell death. (A) Docking of DCEM1 into apical domain of HSP60. (B) LNCaP and PC-3 cells were treated with DCEM1 for 24 hours and HSP60-ClpP interaction was analyzed by co-immunoprecipitation assay. (C) LNCaP and PC-3 cells were treated with DCEM1 for 24 hours and mitoROS levels were analyzed by flow cytometry using mitoSOX dye. (D) LNCaP and PC-3 cells were treated with DCEM1 for 24 hours and poly-Ub protein levels were analyzed by western blotting. (E) LNCaP and PC-3 cells were treated with DCEM1 for 24 and 48 hours and apoptotic cell populations were analyzed by flow cytometry using Annexin V FITC/PI method as explained in materials and methods. […] (F) LNCaP and PC-3 cells were treated with DCEM1 for 24 and 48 hours and lysates were prepared and analyzed for DEVDase activity using specific peptide substrate. […] (G) LNCaP and PC-3 cells were pre-treated with SKQ1 followed by DCEM1 treatment and analyzed for cell viability by MTT assay. (H) LNCaP and PC-3 cells were treated with either DCEM1 or H2O2 (200 μM) for 24 hours and total DNA were isolated and analyzed for mtDNA damage as described in materials and methods.
FIG. 7. […] (C) ClpP protein was over-expressed in LNCaP and PC-3 cells followed by DCEM1 treatment and level of poly-ubiquitinated protein was analyzed by western blotting. […]

[2] = tested on: RWPE-1 cells; test: Apoptosis in non-carcinoma RWPE-1 cells (Annexin V/PI labeling); format: cell-based; settings: 24 h and 48 h, doses 5, 10, 20
Description: FIG. 9. Structure of DCEM1 is shown in (A). (B) Human prostate epithelial non carcinoma RWPE-1 cells were treated with DCEM1 at indicated doses for 24 h and 48 h and apoptotic cells were quantified by Annexin V/PI labeling as described in material and methods. In (B), the bars in each series from left to right are DMSO, 5, 10, and 20.
Identification of novel inhibitor of HSP60-ClpP interaction that disrupts UPR^mt function and induces PCa cell death. Having shown that two arms of UPR^mt, HSP60 chaperonin and ClpP protease interact and play critical role in PCa cell survival, an in silico analysis was performed and a small molecule library (developed by Enamine Ltd) was screened to identify drugs targeting the apical domain of HSP60 critical for its interaction with ClpP. 9 compounds (A-I) were identified and screened for their cell death inducing potential in PCa cells (data not shown). […] Colony forming ability of PCa cells was inhibited by DCEM1 treatment (data not shown).

CCOc1cc(CNCc2nc3ccccc3[nH]2)ccc1OCc1cccs1 [DCEM1]
caspase (DEVDase) activity [1]: robust caspase activity
effect (cell death/apoptosis) on non-carcinoma prostate epithelial RWPE-1 cells [2]: no effect
